≈ marks a conversion by molar mass, not a printed value.
System: multi-drug resistant (MDR) clinical isolates
Experiment: microbe, parasite or virus in culture
Assay type: cell-based, M. tuberculosis
Settings: for level of activity relative to MFX: MDR isolates and H37Rv; for MIC / MIC80: Mycobacterium tuberculosis

Compound	level of activity relative to MFX	MIC [µM]	MIC80 (MDR isolate #13) [µM]	MIC80 (MDR isolate #33) [µM]	MIC80 (MDR isolate #48) [µM]	MIC80 (MDR isolate #61) [µM]	MIC80 (MDR isolate #80) [µM]	MIC80 (MDR isolate #125) [µM]	MIC80 (MDR isolate #137) [µM]	MIC80 (MDR isolate #143) [µM]	MIC80 (MDR isolate #146) [µM]	MIC80 (MDR isolate #171) [µM]	resistance of the MDR strains (all MDR tested strains)
CCc1nc2ccccn2c1C(=O)NCc1ccc(-c2ccccc2)cc1 [Compound 47, N-(Biphenyl-4-ylmethyl)-2-ethylimidazo[1,2-a]pyridine-3-carboxamide]	comparable to or better than MFX	≤ 1.25	0.312 (≈ 0.111 µg/mL)	0.312 (≈ 0.111 µg/mL)	0.312 (≈ 0.111 µg/mL)	0.312 (≈ 0.111 µg/mL)	0.312 (≈ 0.111 µg/mL)	0.625 (≈ 0.222 µg/mL)	1.25 (≈ 0.444 µg/mL)	1.25 (≈ 0.444 µg/mL)	0.156 (≈ 0.0555 µg/mL)	1.25 (≈ 0.444 µg/mL)	–
NNC(=O)c1ccncc1 [INH, Isoniazid, reference compound]	–	–	5 (≈ 0.686 µg/mL)	10 (≈ 1.37 µg/mL)	10 (≈ 1.37 µg/mL)	20 (≈ 2.74 µg/mL)	5 (≈ 0.686 µg/mL)	10 (≈ 1.37 µg/mL)	20 (≈ 2.74 µg/mL)	10 (≈ 1.37 µg/mL)	20 (≈ 2.74 µg/mL)	5 (≈ 0.686 µg/mL)	resistance was confirmed
CCc1nc2ccccn2c1C(=O)NCc1ccc(Oc2ccccc2)cc1 [Compound 54, 2-Ethyl-N-(4-phenoxybenzyl)imidazo[1,2-a]pyridine-3-carboxamide]	comparable to or better than MFX	≤ 0.625	0.156 (≈ 0.058 µg/mL)	0.156 (≈ 0.058 µg/mL)	0.156 (≈ 0.058 µg/mL)	0.156 (≈ 0.058 µg/mL)	0.156 (≈ 0.058 µg/mL)	0.312 (≈ 0.116 µg/mL)	0.625 (≈ 0.232 µg/mL)	0.312 (≈ 0.116 µg/mL)	0.312 (≈ 0.116 µg/mL)	0.312 (≈ 0.116 µg/mL)	–

— patent publication US8865734B2 (priority 2010, dated 2014)
